ChEMBL document CHEMBL1201862, “PubChem BioAssay data set” (2004)
Active and inactive are the calls of the source.

Assays:
[1] = molecular target: T1, Carboxy-terminal domain RNA polymerase II polypeptide A small phosphatase 1 (Homo sapiens, UniProt Q9GZU7); experiment: CTDSP1 inhibitors, concentration-response, biochemical, absorbance readout, ultra-high-throughput screen actives (AID 540297); format: functional
T1 sequence (Q9GZU7 whole entry): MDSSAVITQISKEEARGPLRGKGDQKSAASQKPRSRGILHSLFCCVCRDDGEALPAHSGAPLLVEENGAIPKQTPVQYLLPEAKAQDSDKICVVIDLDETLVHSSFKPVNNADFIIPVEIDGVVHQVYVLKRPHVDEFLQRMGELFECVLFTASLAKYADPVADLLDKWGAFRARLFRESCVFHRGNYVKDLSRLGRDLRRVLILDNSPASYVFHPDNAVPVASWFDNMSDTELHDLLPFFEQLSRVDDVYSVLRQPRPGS

H9c2 = experiment: cells; format: functional, cell-based; conditions: Rattus norvegicus, H9c2, Myocardium;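 further: confirmatory concentration-response retest of ultra-high-throughput screening hits for modulation of myocardial damage; cell death induced by hydrogen peroxide oxidative stress; compound pretreatment for 60 min then peroxide exposure for 2 h; potency is for protecting the cells against peroxide damage rather than for killing them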
[2] = molecular target: T2, Corticotropin-releasing factor receptor 2/Corticotropin-releasing factor-binding protein (Homo sapiens, UniProt P24387+Q13324); experiment: Dose Response confirmation of uHTS hits for small molecule antagonists of the CRF-binding protein and CRF-R2 receptor complex.; format: functional; conditions: read-out: IC50_Mean
T2 sequence (Q13324 whole entry): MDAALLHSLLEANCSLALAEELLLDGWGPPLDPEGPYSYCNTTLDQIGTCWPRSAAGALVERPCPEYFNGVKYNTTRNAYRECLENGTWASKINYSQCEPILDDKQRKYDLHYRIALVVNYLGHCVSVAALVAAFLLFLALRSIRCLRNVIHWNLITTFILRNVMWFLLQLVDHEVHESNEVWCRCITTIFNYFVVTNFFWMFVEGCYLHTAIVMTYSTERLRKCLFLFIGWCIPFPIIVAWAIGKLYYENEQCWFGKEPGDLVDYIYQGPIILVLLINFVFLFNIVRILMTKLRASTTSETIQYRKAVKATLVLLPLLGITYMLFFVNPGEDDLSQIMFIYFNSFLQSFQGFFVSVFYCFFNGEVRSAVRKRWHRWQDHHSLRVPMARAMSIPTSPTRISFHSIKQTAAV
T2 sequence (P24387 whole entry): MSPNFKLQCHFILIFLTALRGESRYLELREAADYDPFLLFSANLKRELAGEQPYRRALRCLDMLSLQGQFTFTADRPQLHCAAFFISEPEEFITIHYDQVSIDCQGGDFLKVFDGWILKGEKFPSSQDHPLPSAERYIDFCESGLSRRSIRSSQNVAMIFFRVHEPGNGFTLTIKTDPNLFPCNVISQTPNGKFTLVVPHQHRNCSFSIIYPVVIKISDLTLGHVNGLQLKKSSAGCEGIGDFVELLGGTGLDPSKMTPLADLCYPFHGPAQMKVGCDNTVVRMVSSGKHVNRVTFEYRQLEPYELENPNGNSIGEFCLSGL

[3] = molecular target: T2, Corticotropin-releasing factor receptor 2/Corticotropin-releasing factor-binding protein; experiment: activators of CRF receptor 2 with binding protein – uHTS hits, confirmation (AID 602473); format: functional; conditions: read-out: EC50_Mean
[4] = Luminescence Cell-Based Dose Confirmation HTS to Identify Activators of 5'UTR Stem-Loop Driven Alpha-Synuclein mRNA Translation in H4 Neuroglioblastoma Cells. [Related pubchem assays: 1829 (Project Summary), 1814 (Primary HTS)]; format: functional
H4 = experiment: Luminescence Cell-Based Dose Response HTS to Identify Activators of 5'UTR Stem-Loop Driven Prion Protein mRNA Translation in H4 Neuroglioblastoma Cells. [Related pubchem assays: 1829 (Project Summary), 1814 (Primary HTS)]; format: functional; conditions: Homo sapiens
[5] = Luminescence Cell-Based Dose Response HTS to Identify Activators of Luciferase Translation or Activity in H4 […] Cells. [Related pubchem assays: 1829 (Project Summary), 1814 (Primary HTS)]; format: functional
[6] = molecular target: T3, Polyadenylate-binding protein 1 (Homo sapiens, UniProt P11940); experiment: MLLE domain peptide-binding blockers, IC50 – biochemical, fluorescence polarization, FITC-PAM2 peptide, dose response (AID 602259); format: functional; conditions: read-out: IC50_Mean
T3 sequence (P11940 whole entry, the tested form may be a part): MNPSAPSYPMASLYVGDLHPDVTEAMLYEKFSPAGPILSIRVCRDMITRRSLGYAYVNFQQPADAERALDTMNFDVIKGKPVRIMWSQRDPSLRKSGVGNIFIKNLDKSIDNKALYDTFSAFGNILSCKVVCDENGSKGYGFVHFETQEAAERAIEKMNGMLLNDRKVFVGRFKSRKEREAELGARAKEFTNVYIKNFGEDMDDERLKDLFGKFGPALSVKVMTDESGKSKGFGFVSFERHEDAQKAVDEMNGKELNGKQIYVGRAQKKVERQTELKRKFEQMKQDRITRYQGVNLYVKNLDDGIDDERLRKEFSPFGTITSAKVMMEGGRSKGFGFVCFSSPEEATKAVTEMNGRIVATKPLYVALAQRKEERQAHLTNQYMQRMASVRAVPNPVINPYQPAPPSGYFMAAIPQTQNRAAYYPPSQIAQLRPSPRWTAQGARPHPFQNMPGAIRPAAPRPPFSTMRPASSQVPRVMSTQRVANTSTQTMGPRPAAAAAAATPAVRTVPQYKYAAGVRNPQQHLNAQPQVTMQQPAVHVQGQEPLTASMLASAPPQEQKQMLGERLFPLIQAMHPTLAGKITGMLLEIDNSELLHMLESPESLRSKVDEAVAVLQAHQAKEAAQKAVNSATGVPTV

[7] = molecular target: T3, Polyadenylate-binding protein 1; experiment: MLLE binding blockers, Cy5 peptide tracer – biochemical, fluorescence polarization, Cy5-PAM2 peptide, secondary, miRNA deadenylation inhibitor project, dose response (AID 602260); format: functional; conditions: read-out: IC50_Mean
[8] = molecular target: T4, High affinity choline transporter 1 (Homo sapiens, UniProt Q9GZV3); experiment: human choline transporter blockers, potency – cell-based, 5-point CRC, membrane potential dye, dose response (AID 504840); format: functional
T4 sequence (Q9GZV3 whole entry): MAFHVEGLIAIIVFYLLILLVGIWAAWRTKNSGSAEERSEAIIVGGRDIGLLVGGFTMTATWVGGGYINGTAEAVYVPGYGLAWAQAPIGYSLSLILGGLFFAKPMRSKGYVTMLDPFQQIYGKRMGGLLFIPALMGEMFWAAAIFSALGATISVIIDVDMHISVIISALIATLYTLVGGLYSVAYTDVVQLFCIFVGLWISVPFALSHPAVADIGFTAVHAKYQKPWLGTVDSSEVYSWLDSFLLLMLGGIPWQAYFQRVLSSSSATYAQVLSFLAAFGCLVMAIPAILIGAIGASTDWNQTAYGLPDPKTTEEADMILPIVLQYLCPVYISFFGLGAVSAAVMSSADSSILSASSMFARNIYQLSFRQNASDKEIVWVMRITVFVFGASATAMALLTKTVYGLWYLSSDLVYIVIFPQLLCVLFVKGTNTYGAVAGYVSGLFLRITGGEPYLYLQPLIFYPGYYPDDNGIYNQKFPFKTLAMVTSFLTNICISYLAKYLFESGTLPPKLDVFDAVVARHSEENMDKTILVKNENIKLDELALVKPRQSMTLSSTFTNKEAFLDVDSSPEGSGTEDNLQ

[9] = loss of viability in HepG2 cells – cell-based, CellTiter-Glo, cherry-picked, cytotoxicity control for Shn3 inhibitor project, dose response (AID 624134); format: functional
[10] = non-specific 3'UTR reporter inhibition in Clone20-Shn3RL – cell-based, Renilla luciferase, cherry-picked, counter-screen for Shn3 inhibitor project, dose response (AID 624133); format: functional
[11] = reduction of Shn3 3'UTR-driven luciferase in osteoblasts – cell-based, Clone20 osteoblasts, firefly luciferase, cherry-picked, dose response (AID 624132); format: functional;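 further: firefly luciferase luminescence from reporter carrying the Shn3 3'UTR in osteoblasts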

COc1ccc(/C=C/C(=O)OCC(=O)NCc2ccco2)cc1OC
IC50 [1]: 14.5 µM (active)

Cn1c(=O)c(NC(=O)c2ccccc2)c2n(c1=S)CCCCC2
IC50 [1]: 14.3 µM (active)

Cn1c(NN)nc2c1c(=O)n(Cc1ccccc1)c(=O)n2C
IC50 [1]: 25.2 µM (active)

CNC(=O)c1cccc(NC(=O)c2cc(-c3ccccc3)nc3c2cnn3C(C)C)c1
IC50 (H9c2): > 79 µM (inactive)

O=C(NCC(=O)N(Cc1cccs1)C(C(=O)NC1CCCCC1)c1ccco1)c1cccs1 (configuration not stated)
IC50 (H9c2): 8.09 µM (active)

Cc1ccc(NC(=O)COC(=O)CN2C(=O)NC3(CCCC3)C2=O)cc1S(=O)(=O)N(C)C
IC50 [2]: > 47.1 µM (inactive)
EC50 [3]: > 53 µM (inactive)

CC(C)(C)c1ccc(C(=O)NNC(=O)C2CCCCC2)cc1
EC50 [4]: 19.6 µM (active)
EC50 (H4): 59.3 µM (active)
EC50 [5]: 30.7 µM (active)

Cc1cc(Cl)ccc1N=C(S)Nc1cccnc1
IC50 [6]: > 66 µM (inactive)
IC50 [7]: > 66 µM (inactive)

O=[N+]([O-])c1cccn2cc(-c3ccc(Br)cc3)nc12
IC50 [1]: 9.74 µM (active)
EC50 (H4): > 120 µM (not active)

COCCn1c(CN2CCN(c3cccc(Cl)c3)CC2)nc2c1c(=O)n(C)c(=O)n2C
IC50 [8]: 12.3 µM (active)
AC50 [9]: 52.3 µM (active)
AC50 [10]: 11 µM (active)
AC50 [11]: 10.7 µM (active)

Clc1ccc(-c2csc(N3CCOCC3)n2)cc1
IC50 [2]: > 47.1 µM (inactive)
EC50 [3]: > 53 µM (inactive)

COc1ccc(Cl)cc1N=C(S)Nc1ccccc1F
IC50 [6]: > 66 µM (inactive)
IC50 [7]: > 66 µM (inactive)

CN1/C(=C\C(=O)c2cccc([N+](=O)[O-])c2)Sc2ccccc21
IC50 [6]: > 66 µM (inactive)
IC50 [7]: > 66 µM (inactive)

COc1ccccc1OCCSc1nc(O)c2ccccc2n1
IC50 (H9c2): 14.4 µM (active)

Cc1nn(C)c(C)c1NC(=O)c1cc2nc(-c3ccco3)cc(C(F)(F)F)n2n1
IC50 [2]: > 47.1 µM (inactive)
EC50 [3]: > 53 µM (inactive)

COc1cccc(OC)c1C(=O)Nc1ccc(Br)c(C(=O)c2ccccc2)c1
IC50 (H9c2): 31.1 µM (inactive)

CCOc1cccc(-c2csc(C3COc4ccccc4O3)n2)c1 (configuration not stated)
EC50 [4]: 13.4 µM (active)
EC50 (H4): 37.5 µM (active)

COc1ccc(-c2cc(C(F)F)n3ncc(C(=O)Nc4ccc(C(=O)N5CCOCC5)cc4)c3n2)cc1
IC50 (H9c2): > 79 µM (inactive)

O=[N+]([O-])c1ccc(O)c(CSc2nnnn2-c2ccccc2)c1
IC50 [8]: 12 µM (active)

COc1ccc(CN2CCN(C(=O)c3cccs3)CC2)c(OC)c1OC
IC50 [2]: > 47.1 µM (inactive)
EC50 [3]: > 53 µM (inactive)

CCc1nc2cccnc2n1-c1ccc(C(=O)O)cc1
IC50 [6]: 49.5 µM (inactive)
IC50 [7]: > 66 µM (inactive)

c1ccc(NC2=Nc3ccccc3CS2)cc1
EC50 [4]: 0.465 µM (active)
EC50 [5]: 0.409 µM (active)

O=[N+]([O-])c1ccc(C(O)CSC(=S)N2CCCCC2)cc1 (configuration not stated)
EC50 [4]: 7.46 µM (active)
EC50 (H4): 32.7 µM (active)
EC50 [5]: 56.4 µM (active)

COC(=O)CC(NC(=S)NC(=O)c1ccccc1)c1ccc(Br)cc1 (configuration not stated)
IC50 [6]: > 66 µM (inactive)
IC50 [7]: > 66 µM (inactive)

CSc1nc2ncc(-c3ccsc3)c(N)n2n1
EC50 [4]: > 120 µM (not active)
EC50 (H4): 27.2 µM (active)
EC50 [5]: 19.5 µM (active)

COc1cccc(NC(=O)COC(=O)c2ccc(S(=O)(=O)NCc3ccco3)cc2)c1
IC50 [1]: 7.96 µM (active)

Cn1c2c(c(=O)[nH]c1=O)C(c1ccc(O)cc1)C1=C(O)c3ccccc3C1=N2 (configuration not stated)
EC50 [4]: > 120 µM (not active)
EC50 (H4): > 120 µM (not active)
EC50 [5]: > 120 µM (not active)

NCCCCCc1nnc(SCc2ccc(Cl)c(Cl)c2)o1
IC50 [8]: 13.2 µM (active)

O=C(NC1=NCCS1)c1cccs1
IC50 [6]: > 66 µM (inactive)
IC50 [7]: > 66 µM (inactive)

CC1(C)Cc2ccccc2-c2c1c(=O)n(Cc1ccccc1)c1nnnn21
IC50 [2]: > 47.1 µM (inactive)
EC50 [3]: > 53 µM (inactive)

O=C1c2ccccc2C2C3=C(O)CC(c4ccco4)CC3=Nc3ccccc3N12 (configuration not stated)
EC50 [4]: > 120 µM (not active)
EC50 (H4): > 120 µM (not active)
EC50 [5]: 41 µM (active)

COc1ccc(NC(=O)NCCCN2CCc3ccccc3C2)cc1
IC50 [2]: > 47.1 µM (inactive)
EC50 [3]: > 53 µM (inactive)

Cc1cc(C)nc(N2N=C(CSc3ccc(Cl)cc3)CC2=O)n1
IC50 [8]: 15.1 µM (active)

CC(c1nc(O)c2ccccc2n1)N(C)c1ccc2ccccc2c1 (configuration not stated)
IC50 [6]: > 66 µM (inactive)
IC50 [7]: > 66 µM (inactive)

COc1cc2c(C(=O)NCc3ccccn3)cn(CC(C)C)c(=O)c2cc1OC
IC50 (H9c2): > 79 µM (inactive)

Cc1ccc(C(C)C)c(OCC(=O)NS(=O)(=O)c2ccc(Cl)cc2)c1
IC50 [8]: 11.8 µM (active)

CCN1C(=O)[C@H]2[C@H]3CN=C(SCC4CC4)N3[C@@](Cc3ccccc3)(C(=O)OC)[C@H]2C1=O
IC50 [1]: 12.1 µM (active)

CCc1ccc(NC(=O)Cn2nc(C(=O)O)c3ccccc3c2=O)cc1
IC50 [2]: > 47.1 µM (inactive)
EC50 [3]: > 53 µM (inactive)

Cc1ccc2c(C)c(C(=O)N3CCC(N4CCC(C(=O)NC5CC5)CC4)CC3)oc2c1
IC50 [8]: 14.5 µM (active)

NC(=S)N/N=C1/CCSc2ccc3ccccc3c21
IC50 [8]: 6.48 µM (active)

N#C/C(=N\Nc1cccc(Cl)c1)C(=O)c1ccccc1
IC50 [8]: 13.8 µM (active)
EC50 [3]: > 53 µM (inactive)
